The nature of experiment [1]: Arterial blood pressure and dP/dt in conscious rats by telemetry. The format is in vivo, Male, Harlan Sprague Dawley rats. The settings on record: single intraperitoneal (ip) injection (100 µl). The source says: Insertion of Transducers: Male, Harlan Sprague Dawley rats were anesthetized with halothane and the abdominal aorta exposed after laparotomy. According to procedures detailed in the "Pressure Telemetry" manual from Data Sciences Inc., pressure transducer/transmitters were secured in place on the abdominal wall with the catheter tip in the abdominal aorta ~2mm above bifurcation. Following closure, the animals then recovered to allow at least 7 days of stable recordings. Baseline data were collected during the 7+ days after surgery.
The transmitted signals were recorded via telemetry and stored on a personal computer. Rate of pressure change, dP/dt, was calculated by software provided by Data Sciences.

Experiment [2] can be described thus: Diuretic effects of GLP-1 or exendin in anesthetized rats (urine flow, sodium excretion, urinary potassium after intravenous bolus). In kind it is in vivo, Male, Harlan Sprague Dawley rats. The protocol: Surgical preparation: The preparation used here was as described in Young et al., (Drug Dev Res. 37:231-248, 1996), but modified by the addition of unilateral ureteral cannulation. Anesthesia was induced with 5% halothane, maintained with 2% halothane during surgery and with 0.7 to 1% thereafter. Tracheotomy and cannulation of a femoral artery, saphenous vein and a single ureter were performed. […] The venous line was used for drug administration. Total saline infusion rate was kept at 4 mL/hr.
Observations are expressed as the percent of baseline, defined as the mean of measurements made in the 30 min prior to starting peptide or vehicle infusion. Data are expressed as mean±SEM. n=5-6.
Unilateral urine flow was measured by weighing the 15-minute output of the cannulated ureter. Total urine flow was estimated as twice this amount.
Treatments: To obtain dose-responses, peptides were dissolved in 0.15 M NaCl and administered as 0.1 ml bolus.

As to `CC[C@H](C)[C@H](NC(=O)[C@H](Cc1ccccc1)NC(=O)[C@H](CCC(=O)O)NC(=O)[C@H](CCCCN)NC(=O)[C@H](C)NC(=O)[C@H](C)NC(=O)[C@H](CCC(N)=O)NC(=O)CNC(=O)[C@H](CCC(=O)O)NC(=O)[C@H](CC(C)C)NC(=O)[C@H](Cc1ccc(O)cc1)NC(=O)[C@H](CO)NC(=O)[C@H](CO)NC(=O)[C@@H](NC(=O)[C@H](CC(=O)O)NC(=O)[C@H](CO)NC(=O)[C@@H](NC(=O)[C@H](Cc1ccccc1)NC(=O)[C@@H](NC(=O)CNC(=O)[C@H](CCC(=O)O)NC(=O)[C@H](C)NC(=O)[C@@H](N)Cc1c[nH]cn1)[C@@H](C)O)[C@@H](C)O)C(C)C)C(=O)N[C@@H](C)C(=O)N[C@@H](Cc1c[nH]c2ccccc12)C(=O)N[C@@H](CC(C)C)C(=O)N[C@H](C(=O)N[C@@H](CCCCN)C(=O)NCC(=O)N[C@@H](CCCNC(=N)N)C(N)=O)C(C)C` [GLP-1], in experiment [1], the “cardiac contractility (dP/dt)” value is given as “increase” and the mean arterial pressure entry is listed as “increase”. Moreover, in experiment [2], the sodium excretion result is listed as “increased”.

For the origin of these results see patent EP1054594B1, “INOTROPIC AND DIURETIC EFFECTS OF EXENDIN AND GLP-1” (AMYLIN PHARMACEUTICALS, INC., priority 1998, dated 2007).
